Source: patent US20110045101A1, “FUNGICIDAL SUBSTITUTED AZOLES” (E.I. Du Pont De Nemours and Company, priority 2009, published 2011)
Marks after values point to notes of the source that are not given here.

Experiments:
Type in all cases: in vivo
Settings in all cases: 100 = 100% disease control
[1] = system: Erysiphe graminis f. sp. tritici; experiment: Test J: wheat powdery mildew on wheat seedlings, sprayed the day before inoculation, visual disease rating
In short: (§1)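 Test rate was 200 ppm, sprayed to run-off and equal to 500 g/ha, or 40 ppm where marked. The compound was first taken up in acetone at 3% of final volume and suspended in acetone/purified water (50/50) containing 250 ppm Trem® 014.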

[2] = system: Puccinia recondita f. sp. tritici; experiment: Test I: wheat leaf rust on wheat seedlings, sprayed the day before inoculation, visual disease rating
In short: as §1

Septoria nodorum = experiment: Test F: wheat glume blotch on wheat seedlings, sprayed the day before inoculation, visual disease rating
In short: as §1

Alternaria solani = experiment: Test D: tomato early blight, sprayed the day before inoculation, visual disease rating
In short: as §1

Septoria tritici = experiment: Test G: wheat leaf blotch on wheat seedlings, sprayed the day before inoculation, visual disease rating
In short: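 Wheat seedlings were sprayed to run-off with test suspension (acetone/water plus surfactant), generally 200 ppm (≈500 g/ha), or 40 ppm where marked. Septoria tritici spores were inoculated the next day; plants were held 48 h at 24°C in saturated atmosphere, then 19 days at 20°C before visual disease rating.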

Botrytis cinerea = experiment: Test C: tomato Botrytis on tomato seedlings, sprayed the day before inoculation, visual disease rating
In short: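 Each compound is first taken up in acetone at 3% of the final volume and then brought to the desired ppm in a 50:50 acetone–water mix with 250 ppm surfactant (polyhydric alcohol esters). Tomato seedlings receive the suspension to run-off, normally at 200 ppm, occasionally 40 ppm.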

[3] = 200 ppm, 0 = no control relative to controls
[4] = 40 ppm (marked *), 0 = no control

| Structure (SMILES) | Test J disease control rating [1, 3] [%] | Test I disease control rating [2, 3] [%] | Test F disease control rating (Septoria nodorum; [3]) [%] | Test D disease control rating (Alternaria solani; [3]) [%] | Test G disease control rating (Septoria tritici; [3]) [%] | Test C disease control rating (Botrytis cinerea; [3]) [%] | Test J disease control rating ([1]; 200 ppm, 0 = no control) [%] | Test I disease control rating ([2]; 200 ppm, 0 = no control) [%] | Test F disease control rating (Septoria nodorum; 200 ppm, 0 = no control) [%] | Test D disease control rating (Alternaria solani; 200 ppm, 0 = no control) [%] | Test G disease control rating (Septoria tritici; 200 ppm, 0 = no control) [%] | Test C disease control rating (Botrytis cinerea; 200 ppm, 0 = no control) [%] | also measured |
| --- | --- | --- | --- | --- | --- | --- | --- | --- | --- | --- | --- | --- | --- |
| Cc1nc(Cl)c(-c2c(F)ccc(Br)c2F)n1-c1ccc(Cl)cc1 [compound 91] | 100 | 96 | 100 | 100 | 99 | 98 | – | – | – | – | – | – | – |
| Fc1cc(-n2c(Cl)nc(Cl)c2-c2c(F)cccc2Cl)ccc1Cl [compound 230] | – | – | – | – | – | – | 99 | 94 | 0 | 97 | 99 | 99 | – |
| Fc1cccc(F)c1-c1c(Cl)nc(Br)n1-c1ccc(C(F)(F)F)cc1 [compound 84] | 99 | 91 | 0 | 99 | 88 | 0 | – | – | – | – | – | – | – |
| Fc1ccc(-n2c(Cl)nc(Cl)c2-c2c(F)ccc(F)c2F)cc1 [compound 129] | 95 | 74 | 0 | 100 | 89 | 99 | – | – | – | – | – | – | – |
| Fc1cccc(F)c1-n1cnc(Br)c1-c1ccc(Cl)cc1 [compound 200] | – | – | – | – | – | – | 21 | 0 | 0 | 0 | 45 | 0 | – |
| Fc1ccc(-n2c(Br)nc(Cl)c2-c2c(F)ccc(F)c2Cl)cc1 [compound 195] | – | – | – | – | – | – | 94 | 100 | 64 | 100 | 94 | 99 | – |
| Cc1nc(Cl)c(-c2ccc(F)cc2Cl)n1-c1ccc(Cl)cc1 [compound 49] | 99 | 99 | 100 | 100 | 94 | 98 | – | – | – | – | – | – | – |
| Cc1ccc(-n2c(C)nc(Cl)c2-c2c(F)ccc(F)c2F)cc1 [compound 155] | – | – | – | – | – | – | 100 | 99 | 87 | 100 | 95 | 99 | – |
| Fc1ccc(-c2c(Cl)nc(Cl)n2-c2ccc(Cl)c(F)c2)c(Cl)c1 [compound 229] | – | – | – | – | – | – | 91 | 89 | 0 | 99 | 98 | 98 | – |
| Fc1ccc(F)c(-c2c(Cl)nc(Cl)n2-c2ccc(Cl)c(Cl)c2)c1F [compound 234] | – | – | – | – | – | – | 98 | 55 | 0 | 99 | 98 | 95 | – |
| Cc1ccc(-n2c(Cl)nc(Cl)c2-c2c(F)cccc2Cl)cc1 [compound 227] | – | – | – | – | – | – | 99 | 99 | 0 | 96 | 94 | 98 | – |
| Cc1nc(Cl)c(-c2c(F)ccc(F)c2F)n1-c1ccc(Cl)c(F)c1 [compound 157] | – | – | – | – | – | – | 100 | 100 | 98 | 99 | 97 | 97 | – |
| Cc1ccc(-n2c(C)nc(Cl)c2-c2c(F)cc(F)cc2F)cc1 [compound 168] | – | – | – | – | – | – | 100 | 100 | 84 | 99 | 98 | 97 | – |
| COc1ccc(-c2c(Cl)ncn2-c2ccc(Cl)cc2)c(F)c1 [compound 106] | 95 | 99 | 64 | 99 | 93 | 100 | – | – | – | – | – | – | – |
| Cc1nc(Cl)c(-c2c(F)cc(O)cc2F)n1-c1ccc(Cl)cc1 [compound 119] | 0 | 80 | 40 | 80 | 91 | 96 | – | – | – | – | – | – | – |
| CSc1ccc(F)c(-c2c(Cl)ncn2-c2ccc(Cl)cc2)c1F [compound 215] | – | – | – | – | – | – | 91 | 68 | 0 | 85 | 96 | 98 | – |
| Cc1ccc(-n2c(C)nc(Cl)c2-c2c(F)cccc2Cl)cc1 [compound 190] | – | – | – | – | – | – | 100 | 100 | 0 | 100 | 93 | 97 | – |
| Cc1nn(C)c(-c2c(Cl)cccc2Cl)c1-c1ccc(Cl)cc1 [compound 87] | 99 | 27 | 0 | 0 | 84 | 0 | – | – | – | – | – | – | – |
| COc1ccc(-c2c(Cl)nc(Br)n2-c2ccc(Cl)cc2)c(F)c1 [compound 110] | 96 | 97 | 100 | 99 | 95 | 94 | – | – | – | – | – | – | – |
| Cc1nn(C)c(-c2c(Cl)cccc2Cl)c1-c1ccc(Cl)c(F)c1 [compound 89] | 98 | 85 | 0 | 0 | 3 | 0 | – | – | – | – | – | – | – |
| Fc1cccc(F)c1-n1c(Br)nc(Br)c1-c1ccc(Cl)cc1 [compound 162] | – | – | – | – | – | – | – | – | – | – | – | – | Test J disease control rating [1, 4]: 94* %; Test I disease control rating [2, 4]: 23* %; Test F disease control rating (Septoria nodorum; [4]): 0* %; Test D disease control rating (Alternaria solani; [4]): 97* %; Test G disease control rating (Septoria tritici; [4]): 93* %; Test C disease control rating (Botrytis cinerea; [4]): 88* % |
| COc1cc(F)c(-c2c(C)nc(C)n2-c2ccc(Cl)cc2)c(F)c1 [compound 55] | – | – | – | – | – | – | – | – | – | – | – | – | Test J disease control rating ([1]; 40 ppm (marked *)): 100* %; Test I disease control rating ([2]; 40 ppm (marked *)): 99* %; Test F disease control rating (Septoria nodorum; 40 ppm (marked *)): 98* %; Test D disease control rating (Alternaria solani; 40 ppm (marked *)): 100* %; Test G disease control rating (Septoria tritici; 40 ppm (marked *)): 93* %; Test C disease control rating (Botrytis cinerea; 40 ppm (marked *)): 94* % |
| Cc1nc(Cl)c(-c2c(F)cccc2F)n1-c1cccc(Cl)c1 [compound 236] | – | – | – | – | – | – | 100 | 100 | 99 | 100 | 96 | 100 | – |
